{
  "source": "patent US6800467B1",
  "about": "“Polypeptides having aminopeptidase activity and nucleic acids encoding same” (Novozymes Biotech, Inc., priority 1997, dated 2004)",
  "target": "T1, aminopeptidase II (Aspergillus oryzae, UniProt Q2ULM2)",
  "T1 construct": "the first 15 amino acids likely comprise a secretory signal peptide; made in house; host or cells: Aspergillus oryzae JaL142-6 (alkaline protease-deficient), plasmid pEJG19; purified from shake flask supernatant on Q-Sepharose",
  "T1 sequence (Q2ULM2 17-496)": "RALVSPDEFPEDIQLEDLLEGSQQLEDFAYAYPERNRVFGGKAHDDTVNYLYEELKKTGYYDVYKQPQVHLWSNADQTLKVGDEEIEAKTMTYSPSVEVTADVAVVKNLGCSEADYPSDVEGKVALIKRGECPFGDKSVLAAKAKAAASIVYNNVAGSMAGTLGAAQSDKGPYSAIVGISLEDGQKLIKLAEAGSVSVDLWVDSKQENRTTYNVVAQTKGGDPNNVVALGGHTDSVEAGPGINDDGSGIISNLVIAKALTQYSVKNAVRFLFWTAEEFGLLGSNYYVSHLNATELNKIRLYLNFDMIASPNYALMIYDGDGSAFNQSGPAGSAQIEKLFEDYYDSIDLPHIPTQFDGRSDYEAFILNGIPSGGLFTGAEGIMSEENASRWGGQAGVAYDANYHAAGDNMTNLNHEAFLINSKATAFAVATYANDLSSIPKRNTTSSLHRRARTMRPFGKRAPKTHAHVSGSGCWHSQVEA",
  "experiment": "Inhibition of the aminopeptidase II with 1,10-phenanthroline, Leu-pNA as substrate",
  "assay_type": "biochemical",
  "conditions": "pH 7.5",
  "method": "Inhibition of the aminopeptidase II with 1,10-phenanthroline was evaluated using Leu-pNA as substrate at pH 7.5 in 50 mM Tris pH 7.5 buffer where hydrolysis was monitored at 405 nm. A 200 mM solution of 1,10-phenanthroline in methanol was prepared. The inhibition reaction was conducted by mixing 100 μl of 2 mg of Leu-pNA per ml of 50 mM sodium phosphate pH 7.5 solution and 10 μl of the 1,10-phenanthroline solution with 100 μl of aminopeptidase II diluted 5-fold in 50 mM sodium phosphate pH 7.5 buffer. A control was run where 10 μl of 20 mM Tris pH 7.6 buffer was used in place of the 1,10-phenantholine solution.",
  "data": [
    {"smiles": "c1cnc2c(c1)ccc1cccnc12", "note": "[1,10-phenanthroline]", "values": [
      {"measurement": "Inhibition of the aminopeptidase II", "setting": "Leu-pNA as substrate, 10 μl of 200 mM 1,10-phenanthroline in methanol", "result": "inhibited"},
      {"measurement": "rate of hydrolysis of Leu-pNA in the presence of 1,10-phenanthroline", "setting": "control without inhibitor 285 mOD/minute", "result": 21, "unit": "mOD/minute"}
    ]}
  ]
}
